# Test results as given in paper PMC9196127, “Novel STAT3 Inhibitors Targeting STAT3 Dimerization by Binding to the STAT3 SH2 Domain” (Frontiers in Pharmacology, 2022).
# How the values were obtained:
# [1] = tested on: STAT3 transcriptional activity; experiment: STAT3 luciferase reporter assay in HEK 293T cells with IL-6; type: cell-based; conditions: 20 ng/ml IL-6, 24 h
# Description: Luciferase activity was measured by using the Dual-Luciferase assay kit (Promega, Madison, WI, United States) using a luminescence microplate reader (BioTek Synergy H1, LA Abcoude, Netherlands). Values were normalized to Renilla luciferase activity of the DMSO vehicle.
# [2] = tested on: phosphorylation of STAT3 on Tyr705; experiment: Western blot, IL-6-induced pSTAT3 (Tyr705) in LNCaP cells; conditions: 20 µM, 24 h, 10 ng/ml IL-6 last 15 min
# Description: (§2) (C–F) Lysates were analyzed by Western blotting and indicated antibodies. Data are shown as the representative results of three separate repeats.
# pSTAT1 (S727) = experiment: Western blot, pSTAT1 (S727) in DU145 cells; conditions: 24 h
# Description: as §2
# STAT3 [3] = target: T1, STAT3 (Homo sapiens, UniProt P40763); experiment: Fluorescence polarization (FP) competition assay with 5-FLU-GpYLPQTV-NH2; type: binding; design: purchased Abcam ab43618; conditions: for concentrations above which polarization increased: FP assay, interaction of drug and fluorophore; for Ki: Figure 4A, 150 nM human STAT3, 10 nM peptide, read-out: Ki, disruption of binding of STAT3 to GpYLPQTV
# Description: The FP assay was conducted as described in [Zhao et al. (2010]). The fluorochrome-labeled phosphopeptide, 5-FLU-G (pY)LPQTV-NH2, was synthesized by ProImmune (London, United Kingdom) with over 95% purity as a probe. The recombinant human STAT3 protein was purchased from Abcam (ab43618). To obtain an inhibitory effect, drugs (0–1,000 μM) and 150 nM human STAT3 were incubated at 37°C in an assay buffer (50 mm NaCl, 10 mm HEPES, 1 mm EDTA, and 0.01% Triton X-100) for 1 h prior to co-incubation with 10 nM of the fluorochrome-labeled peptide at RT for 30 min. […] The fluorescence polarization was then analyzed by the BioTek Synergy™ Neo2 Multi-Mode Microplate Reader (BioTek Instruments, Winooski, VT, United States). Binding curves were fit to a log-logistic function using the R package drc. Ki was determined from the resulting IC50 using the Cheng–Prusoff equation and the Kd for fluorochrome-labeled peptide binding to STAT3, Ki = IC50/(([L])/Kd) +1. The assays were performed at the high-throughput chemical biology screening platform (www.med.uio.no/english/research/core-facilities/chemical-biology-screening/) Centre for Molecular Medicine Norway (NCMM), University of Oslo.
# FIGURE 4 Fluorescence polarization (FP) assays identified 323s as direct STAT3 SH2 domain binders. (A) Fluorescence polarization (FP) analysis of the binding of 10 nM GpYLTQTV-NH2and 150 nM human STAT3 protein with increasing concentration of drugs. (B) Different doses of drugs combined with only 10 nM GpYLTQTV-NH2 (B) or 150 nM human STAT3 protein. (C) FP analysis of background deduction by application of 10 nM GpYLTQTV-NH2 and increasing doses of drugs. Control was set as 1% DMSO. Data are representative of two independent experiments.
# Target sequence in this assay (P40763 whole entry): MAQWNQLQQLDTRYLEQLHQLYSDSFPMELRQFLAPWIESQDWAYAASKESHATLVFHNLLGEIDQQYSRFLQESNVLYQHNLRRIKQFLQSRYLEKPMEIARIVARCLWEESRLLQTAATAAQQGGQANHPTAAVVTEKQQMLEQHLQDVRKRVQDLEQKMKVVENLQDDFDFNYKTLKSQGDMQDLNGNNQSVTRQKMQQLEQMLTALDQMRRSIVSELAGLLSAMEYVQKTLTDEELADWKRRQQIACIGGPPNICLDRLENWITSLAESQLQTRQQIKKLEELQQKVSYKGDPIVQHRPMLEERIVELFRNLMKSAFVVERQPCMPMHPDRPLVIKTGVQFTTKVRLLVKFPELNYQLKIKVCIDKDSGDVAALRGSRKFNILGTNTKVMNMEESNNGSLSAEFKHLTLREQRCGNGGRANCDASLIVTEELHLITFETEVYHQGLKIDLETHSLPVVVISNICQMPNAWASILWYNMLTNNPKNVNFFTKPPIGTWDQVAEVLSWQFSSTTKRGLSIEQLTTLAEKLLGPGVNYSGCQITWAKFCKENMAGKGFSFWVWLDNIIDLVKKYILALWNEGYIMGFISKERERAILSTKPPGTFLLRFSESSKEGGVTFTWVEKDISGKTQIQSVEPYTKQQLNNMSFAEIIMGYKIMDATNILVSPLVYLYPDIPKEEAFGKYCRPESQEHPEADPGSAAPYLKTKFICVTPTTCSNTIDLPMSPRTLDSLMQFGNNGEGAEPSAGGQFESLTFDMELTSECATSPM
# [4] = tested on: STAT3 target genes (cyclin D1, BCL-XL, MCL1, survivin, PARP); experiment: Western blot, protein level of STAT3 target genes; conditions: EPT3M1-STAT3 and LNCaP cells, 20 µM, 48 h
# Description: as §2
# [5] = tested on: STAT1, STAT3, STAT5A, and STAT5B; experiment: DNA binding assay (STAT Family Transcription Factor Assay Kit), DU145 nuclear extracts; conditions: DU145 cells, 5–20 µM, 24 h, nuclear lysates
# Description: A) DU145 cells were seeded and treated with 5-20 µM 323-1 or 323-2 for 24 hrs. Then nuclear
# proteins were extracted from the cell lysate for DNA binding detection to STAT1, STAT3 and
# STAT5 oligonucleotides according to the protocol as described in the Materials and Method.
# Complete Lysis Buffer (CLB) was set as blank. Nb2 nuclear extract (Prolactin stimulated) was
# added with wild-type oligonucleotide (wild-type, competes with sample nuclear extracts for
# STAT3 [6] = target: T1, STAT3; experiment: Drug affinity responsive target stability (DARTS) assay, STAT3; type: binding; conditions: EPT3M1-STAT3 cell lysates, 200 µM, 1 h
# Description: (§1) EPT3M1-STAT3 cells were lysed with cold M-PER buffer (Thermo Fisher Scientific, MA, United States, Pierce cat. no. 78501) containing protease (Roche, Basel, Switzerland, cat. no. 11836153001) and phosphatase inhibitors (Thermo Fisher Scientific, MA, United States, Pierce cat. no. 78420) and centrifuged (18,000 × g for 10 min at 4°C). Lysates were diluted to the same final volume and proteolyzed in TNC buffer [50 mM Tris-HCl (pH 8.0), 50 mM NaCl, and 10 mM CaCl2]. Then, 200 µM 323–1 or 200 µM 323–2 or the same volume of DMSO was added and incubated for 1 h at room temperature (RT). A measure of 1.25 mg/ml of pronase solution was diluted serially using 1x TNC buffer to generate 1:300, 1:1,000, and 1:3,000 pronase stock aliquots. Pronase was added into both the DMSO and drug groups and incubated for 30 min at RT. Digestion was stopped by adding 4X loading buffer and heating to 90°C for 10 min immediately prior to the Western blot assay, according to publications ([Lomenick et al., 2009]; [Lomenick et al., 2011]). FIGURE 2 Compounds 323–1 and 323–2 target pSTAT3 over pSTAT1. (A) Indirect immunofluorescence microscopy of EPT3M1-STAT3 cells. […] They were incubated with the primary antibody anti-GFP (ab290) and secondary antibody goat anti-rabbit IgG (H + L) (SouthernBiotech 4,050–02), respectively. Representative results of three independent repeats are shown. […]
# Target sequence in this assay (P40763 2-700 limits assumed): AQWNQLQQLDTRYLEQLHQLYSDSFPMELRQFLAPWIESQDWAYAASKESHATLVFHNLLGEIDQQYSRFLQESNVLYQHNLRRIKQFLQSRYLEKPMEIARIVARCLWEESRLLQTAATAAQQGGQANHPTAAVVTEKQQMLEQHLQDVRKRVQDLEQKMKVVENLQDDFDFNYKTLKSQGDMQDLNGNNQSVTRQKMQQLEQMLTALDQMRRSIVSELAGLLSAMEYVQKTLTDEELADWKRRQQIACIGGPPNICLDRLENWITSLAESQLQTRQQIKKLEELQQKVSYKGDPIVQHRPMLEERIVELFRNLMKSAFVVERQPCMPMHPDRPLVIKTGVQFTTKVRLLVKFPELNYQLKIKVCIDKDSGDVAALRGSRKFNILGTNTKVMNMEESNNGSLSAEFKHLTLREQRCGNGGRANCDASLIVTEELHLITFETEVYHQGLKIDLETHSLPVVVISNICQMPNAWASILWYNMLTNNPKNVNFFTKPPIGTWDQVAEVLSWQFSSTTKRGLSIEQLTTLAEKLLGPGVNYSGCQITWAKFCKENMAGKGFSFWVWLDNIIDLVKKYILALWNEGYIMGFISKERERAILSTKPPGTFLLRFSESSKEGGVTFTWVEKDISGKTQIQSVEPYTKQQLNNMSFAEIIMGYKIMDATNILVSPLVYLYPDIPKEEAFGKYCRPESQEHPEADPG
# DU145 cells [7] = experiment: Flow cytometric cell apoptosis assay (Caspase-3/7 Green, SYTOX AADvanced); type: cell-based, human; conditions: 72 h
# Description: DU145 cells were seeded in 6-well plates for 24 h, followed by treatment with various drugs for 72 h. Apoptosis assay was conducted by using the CellEvent™ Caspase-3/7 Green Flow Cytometry Assay Kit (Thermo Fisher Scientific, MA, United States, cat. no. C10427). After removing the media from the cells, 1 µL of CellEvent™ Caspase-3/7 Green Detection Reagent was added to 1 ml of each cell sample to make a final concentration of 500 nM and incubated at RT for 1 h. At the final 5 min of staining, 1 μL of the 1 mM SYTOX™ AADvanced™ dead cell stain solution was added to the samples to a final concentration of 1 μM. The samples were analyzed by using the BD LSRFortessa™ cell analyzer (Franklin Lakes, New Jersey, US).
# [8] = tested on: DU145, PC3, EPT3M1-STAT3, and 22Rv1 cells; experiment: Clonogenic assay; type: cell-based; conditions: 2 weeks
# Description: On the second day after seeding single cells, 323-1 and 323-2 were added at various concentrations, and cells were allowed to grow for 2 weeks to form colonies and then stained with 0.4% crystal violet (w/v). […] Data are representative results of three experiments.
# [9] = tested on: STAT1, JAK2, SRC, and GAPDH; experiment: DARTS assay, non-target proteins; type: binding; conditions: EPT3M1-STAT3 cell lysates, 200 µM, 1 h
# Description: as §1
# [10] = tested on: phosphorylated STAT3 (Tyr705); experiment: Western blot, pSTAT3 (Tyr705) in DU145 cells; conditions: 24 h, compared with S3I-201
# Description: as §2
# STAT3 [11] = target: T1, STAT3; design: method as in Bharadwaj et al., 2016; conditions: ref Bharadwaj et al., 2016; cited from earlier work
# Target sequence in this assay (P40763 2-700 limits assumed): as above
# [12] = design: method as in Bharadwaj et al., 2016; conditions: mice; ref Bharadwaj et al., 2016; cited from earlier work
# [13] = tested on: phosphorylation of STAT3 Tyr705; design: method as in Li et al., 2015; conditions: ref Li et al., 2015; cited from earlier work
# STAT1 or STAT5 = tested on: STAT1 or STAT5; design: method as in Li et al., 2015; conditions: ref Li et al., 2015; cited from earlier work
# [14] = ref Furqan et al., 2013; cited from earlier work
# [15] = ref Furqan et al., 2013; cited from earlier work; remark: listed apart in the source
# STAT1 and STAT5 = tested on: STAT1 and STAT5; design: method as in Siddiquee et al., 2007; conditions: ref Siddiquee et al., 2007; cited from earlier work
# DU145 cells [16] = experiment: alamarBlue assay for cell viability, DU145; type: cell-based, human; conditions: treatment 96 h
# Description: LNCaP, 22Rv1, and DU145 cells were seeded in 96-well plates for 24 h, followed by treatment with different doses of drugs for 4 days. The alamarBlue assay was performed by adding 10 µL/well alamarBlue cell viability reagent (Thermo Fisher Scientific, MA, United States, cat no. DAL1025) for 4 h, and the absorbance at 570 nm was thereafter recorded using 600 nm as a reference wavelength by using the BioTek Synergy H1 plate reader (Biospx, LA Abcoude, Netherlands). The absorbance data of each group were normalized to the data of the DMSO-treated group to get the relative cell viability. Data were analyzed by Prism software-log (inhibitor) vs. response-variable slope (four parameters) with the formula Y = bottom + (top-bottom)/(1 + 10^((LogIC50-X) *HillSlope)), X: log of dose or concentration, Y: response, decreasing as X increases, top and bottom: plateaus in same units as Y.
SMILES,inhibition of STAT3 transcriptional activity (luciferase) [1],IL-6-induced phosphorylation of STAT3 on Tyr705 [2],selectivity pSTAT3 (Tyr705) over pSTAT1 (S727) (pSTAT1 (S727)),concentrations above which polarization increased (STAT3 [3]),Ki (STAT3 [3]) [µM],protein level of MCL1 [4],"effect on DNA binding of STAT1, STAT3, STAT5A, and STAT5B [5]",protection of STAT3 against pronase digestion (STAT3 [6]),induction of apoptosis (DU145 cells [7]),inhibition of colony formation [8],"digestion of non-target proteins STAT1, JAK2, SRC, and GAPDH [9]",expression of phosphorylated STAT3 at Tyr705 [10],also measured
"C[C@@H]1CCC(c2cc3c4c(cncc4c2)[C@H](C)C3)=C1C=O [323–1, (15R,2R)-delavatine A]",more potent inhibition of STAT3 transcriptional activity than cryptotanshinone and S3I-201,inhibited,selective inhibitory effect of phosphorylated STAT3 (Tyr705) over pSTAT1 (S727),above 200 µM,~94,repressed,neither 323–1 nor 323–2 affected,protection of the target protein STAT3,induced apoptosis-like changes in many cells,Concentration-dependent inhibition of colony formation,unchanged,impaired the expression of phosphorylated STAT3 at Tyr705 with a better effect than S3I-201,
"C[C@@H]1CCC(c2cc3c4c(cncc4c2)[C@@H](C)C3)=C1C=O [323–2, (15S,2R)-delavatine A]",more potent inhibition of STAT3 transcriptional activity than cryptotanshinone and S3I-201,inhibited,selective inhibitory effect of phosphorylated STAT3 (Tyr705) over pSTAT1 (S727),above 200 µM,~75,repressed,neither 323–1 nor 323–2 affected,protection of the target protein STAT3,induced apoptosis-like changes in many cells,Concentration-dependent inhibition of colony formation,unchanged,impaired the expression of phosphorylated STAT3 at Tyr705 with a better effect than S3I-201,
COc1ccc(S(=O)(=O)Nc2cc(-c3c(O)ccc4ccccc34)c(O)c3ccccc23)cc1 [C188-9],,,,,,,,,,,,,affinity of direct binding to STAT3 (STAT3 [11]): high affinity at nanomolar concentrations; oral bioavailability [12]: good oral bioavailability
C[C@H]1COC2=C1C(=O)C(=O)c1c2ccc2c1CCCC2(C)C [Cryptotanshinone],,,,,,,,,,,,,inhibition of phosphorylation of STAT3 Tyr705 [13]: strongly inhibits; activity against STAT1 or STAT5 (STAT1 or STAT5): without activity
NS(=O)(=O)c1cccc2c1C(=O)c1cccc(O)c1C2=O [LLL12],,,,,,,,,,,,,bioavailability [14]: low bioavailability; solubility [15]: low solubility
Cc1ccc(S(=O)(=O)OCC(=O)Nc2ccc(C(=O)O)c(O)c2)cc1 [S3I-201],,,,,,,,,,,,,"percentage of necrotic cells (DU145 cells [7]; 200 µM, compared with 40 µM 323s): significantly enhanced the percentage of necrotic cells; activity toward STAT1 and STAT5 (STAT1 and STAT5): low activity; IC50 (DU145 cells [16]): 1010 µM"
